Experimental data from patent publication US20040126431A1, “Method for preparing microspheres containing a water-soluble substance” (priority 2000, published 2004).

How the values were obtained:
[1] = test system: PC-3 human prostate tumors (xenografts); assay: Antitumor activity on PC-3 human prostate tumors after i.t. administration; assay type: in vivo, Nude mice
Method: 10^7 PC-3 cells were inoculated on the flank of male Nude mice. The treatment began from a tumor size of 210-266 mm^3 (day 30).
The volume of the test substances administered to the PC-3 tumors was equivalent to the tumor volume (1 μl of treatment per 1 mm^3 of tumor).
(§1) The experiments were stopped when the size of the tumor reached 2 000 mm^3 or when the period after the final treatment exceeded 60 days. Mice carrying progressive tumors were sacrificed. The mice were weighed and examined twice a week, and the weight of the sick animals was compared with the weight of three healthy mice (no tumor, no treatment, of the same batches). The animals were monitored for 98 days.

[2] = test system: IGROV-1 xenografts (peritoneal ovarian adenocarcinoma of human origin); assay: Antitumor activity on IGROV-1 tumors after i.p. administration; assay type: in vivo, Nude mice; conditions: for Survival at D98: survivors/5 mice
From the text: 10^7 viable IGROV-1 cells were inoculated i.p. into Nude mice. On day 15 after inoculation of tumor cells, the mice were given the substances tested by i.p. administration.
The control group was given only a solution of 5% glucose or empty microspheres. Each group was made up of 5 mice. Isoflurane was used to anesthetize the animals before implantation of the tumor or sacrifice of the animals.
as §1

With `O=C1[O][Pt]2([NH][C@@H]3CCCC[C@H]3[NH]2)[O]C1=O` [Oxaliplatin, oxaliplatin] the T/C % ([1]; i.v., 6 mg/kg oxaliplatin administered three times every four days) was 80.41%, the T/C % ([1]; single i.t. injection, 30 mg/kg oxaliplatin, 30 mg/kg) was 5.24% and the T/C % ([1]; single i.v. injection, 15 mg/kg oxaliplatin) was 55.47%. For the same compound, the “T/C % (median survival time treated / untreated control x 100)” value ([2]; i.p., 6 mg/kg oxaliplatin administered 3 times every four days, treatment from day 15) was 85.71%, the “Survival at D98” value ([2]; i.p., 6 mg/kg oxaliplatin administered 3 times every four days) was 0/5 and the “antitumor activity (in words)” value ([2]; i.p., dose of 15 mg base/kg oxaliplatin) was “did not show any significant antitumor activity”. For the same compound, the “T/C % (median survival time treated / untreated control x 100)” value ([2]; single i.p. dose, 15 mg/kg oxaliplatin, day 15) was 102.38% and the “Survival at D98” value ([2]; single i.p. dose, 15 mg/kg oxaliplatin) was 1/5.
